Experimental data reported in patent US6831199B1, “Pyrimidine compounds and derivatives thereof” (G. D. Searle & Co., priority 1995, dated 2004).
Counter-ions that a name gives are not always drawn.

Assays:
[1] = molecular target: T1, Human vitronectin receptor (αvβ3) (Homo sapiens, UniProt P05106+P06756); experiment: Vitronectin adhesion assay (solid phase receptor assay, competition with biotinylated vitronectin); type: binding; details: read-out: AvB3 IC50
T1 construct: Human vitronectin receptor (αvβ3) was purified from human placenta; from tissue; host or cells: human placenta
Outline: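 Purified human αvβ3 coated overnight at 4 °C in TBS with 1.0 mM Ca++, Mg++, Mn++, pH 7.4; compounds (top final 1.0×10^−4 M) competed with 1 nM biotinylated vitronectin for 2 h at room temperature. Bound ligand detected by HRP anti-biotin/OPD at A450; values normalized to no-competitor controls, four-parameter curve fit.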

[2] = molecular target: T2, Human fibrinogen receptor (αIIbβ3) (Homo sapiens, UniProt P05106+P08514); experiment: Purified IIb/IIIa receptor assay (solid phase receptor assay, competition with biotinylated vitronectin); type: binding; details: read-out: IIb/IIIa IC50
T2 construct: Human fibrinogen receptor (αIIbβ3) was purified from outdated platelets; from tissue; host or cells: outdated human platelets
Outline: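 Competition format: 1 nM biotinylated vitronectin plus test compound (highest 1.0×10^−4 M), 2 h at room temperature on wells coated with platelet-derived αIIbβ3. Buffer was TBS containing 1.0 mM Ca, Mg, Mn, pH 7.4. HRP anti-biotin readout at 450 nm; normalized to maximum binding, four-parameter curve fit.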

Compound	IC50 [1]	IC50 [2]
O=C(O)CC(NC(=O)CNC(=O)c1cccc(NC(=O)NCc2ccccn2)c1)c1cccnc1 (stereo not drawn) [Example 268, β[[2-[[[3-[[[(2-pyridinylmethyl)amino]carbonyl]amino]phenyl]carbonyl]amino]acetyl]amino]pyridine-3-propanoic acid, (bis)trifluoroacetate salt]	0.67 nM	7430 nM
O=C(O)CC(NC(=O)CNC(=O)c1cccc(NC(=O)NCc2ccccc2)c1)c1cc(Cl)cc(Cl)c1 (stereo not drawn) [Example 269, 3,5-dichloro-β-[[2-[[[3-[[[(phenylmethyl)amino]carbonyl]amino]phenyl]carbonyl]amino]acetyl]amino]benzenepropanoic acid, monohydrate]	209 nM	25400 nM
O=C(O)CC(NC(=O)CNC(=O)c1cccc(NC(=O)NCc2ccccc2)c1)c1cccc(Cl)c1 (stereo not drawn) [Example 270, 3-chloro-β-[[2-[[[3-[[[(phenylmethyl)amino]carbonyl]amino]phenyl]carbonyl]amino]acetyl]amino]benzenepropanoic acid, monohydrate]	5.51 nM	9160 nM
CC(NC(=O)Nc1cccc(C(=O)NCC(=O)NC(CC(=O)O)c2cccnc2)c1)c1ccccc1 (stereo not drawn) [Example 271, β-[[2-[[[3-[[[(1-phenylethyl)amino]carbonyl]amino]phenyl]carbonyl]amino]acetyl]amino]pyridine-3-propanoic acid, trifluoroacetate salt]	29.9 nM	4610 nM
O=C(O)CC(NC(=O)CNC(=O)c1cccc(NC(=O)NCc2nc3ccccc3[nH]2)c1)c1cc(Cl)cc(Cl)c1 (stereo not drawn) [Example 272, β-[[2-[[[3-[[[[(1H-benzimidazol-2-yl)methyl)amino]carbonyl]amino]phenyl]carbonyl]amino]acetyl]amino]-3,5-dichlorobenzenepropanoic acid, trifluoroacetate salt]	893 nM	8210 nM
O=C(O)CC(NC(=O)CNC(=O)c1cccc(NC(=O)NCc2cc(Cl)cc(Cl)c2)c1)c1cccnc1 (stereo not drawn) [Example 273, β-[[2-[[[3-[[[[(3,5-dichlorophenyl)methyl]amino]carbonylamino]phenyl]carbonyl]amino]acetyl]amino]pyridine-3-propanoic acid, trifluoroacetate salt]	12.9 nM	4160 nM
CC(CC(=O)O)NC(=O)CNC(=O)c1cccc(NC(=O)NCc2cc(Cl)cc(Cl)c2)c1 (stereo not shown) [Example 274, 3-[[2-[[[3-[[[[(3,5-dichlorophenyl)methyl]amino]carbonyl]amino]phenyl]carbonyl]amino]acetyl]amino]butanoic acid]	31.1 nM	21200 nM
CC(C)Oc1cc(OC(C)C)cc(C(CC(=O)O)NC(=O)CNC(=O)c2cccc(NC(=N)N)c2)c1 (stereo not drawn) [Example 275, β-[[2-[[[3-[(aminoiminomethyl)amino]phenyl]carbonyl]amino]acetyl]amino]-3,5-bis(1-methylethoxy)benzenepropanoic acid, trifluoroacetate salt]	6.98 nM	1200 nM
N=C(N)Nc1cccc(C(=O)NCC(=O)NC(CC(=O)O)c2cc(Br)c(O)c(Br)c2)c1 (stereo not drawn) [Example 276, β-[[2-[[[3-[(aminoiminomethyl)amino]phenyl)carbonyl]amino]acetyl]amino]-3,5-dibromo-4-hydroxybenzenepropanoic acid, trifluoroacetate salt]	1.25 nM	111 nM
N=C(N)Nc1cccc(C(=O)NCC(=O)NC(CC(=O)O)c2cc(Cl)c(O)c(Cl)c2)c1 (stereo not drawn) [Example 277, β-[[2-[[[3-[(aminoiminomethyl)amino]phenyl]carbonyl]amino]acetyl]amino]-3,5-dichloro-4-hydroxybenzenepropanoic acid, trifluoroacetate salt]	1.41 nM	198 nM
O=C(O)CC(NC(=O)CNC(=O)c1cccc(NC2=NCCCS2)c1)c1cccnc1 (stereo not drawn) [Example 278, β-[[2-[[[3-[(5,6-dihydro-4H-thiazin-2-yl)amino]phenyl]carbonyl]amino]acetyl]amino]pyridine-3-propanoic acid, bis(trifluoroacetate)salt]	0.45 nM	150 nM
N=C(N)Nc1ccc(O)c(C(=O)NCC(=O)NC(CC(=O)O)c2cc(Cl)cc(Cl)c2)c1 (stereo not drawn) [Example 279, β-[[2-[[[5-[(aminoiminomethyl)amino]-2-hydroxyphenyl]carbonyl]amino]acetyl]amino]-3,5-dichlorobenzenepropanoic acid, trifluoroacetate salt]	7.12 nM	637 nM
O=C(O)CC(NC(=O)CNC(=O)c1cccc(NC(=O)NNc2ccccc2)c1)c1cccnc1 (stereo not drawn) [Example 281, β-[[2-[[[3-[[[(phenylamino)amino]carbonyl]amino]phenyl]carbonyl]amino]acetyl]amino]pyridine-3-propanoic acid, trifluoroacetate salt]	4.16 nM	11500 nM
Nc1nnc(Nc2cccc(C(=O)NCC(=O)NC(CC(=O)O)c3cc(Cl)cc(Cl)c3)c2)[nH]1 (stereo not drawn) [Example 282, β-[[2-[[[3-[(5-amino-1,2,4-triazol-3-yl)amino]phenyl]carbonyl]amino]acetyl]amino]-3,5-dichlorobenzenepropanoic acid, trifluoroacetate salt]	864 nM	9770 nM
O=C(O)CC(NC(=O)CNC(=O)c1cccc(Nc2cc(=O)[nH]c(=O)[nH]2)c1)c1cc(Cl)cc(Cl)c1 (stereo not drawn) [Example 284, 3,5-dichloro-β-[[2-[[[3-[[1,2,3,4-tetrahydro-2,4-dioxopyrimidin-6-yl)amino]phenyl]carbonyl]amino]acetyl]amino]benzenepropanoic acid]	195 nM	18400 nM
N=C(Nc1cccc(C(=O)NCC(=O)NC(CC(=O)O)c2cc(Cl)cc(Cl)c2)c1)N1CCCCC1 (stereo not drawn) [Example 285, 3,5-dichloro-β-[[2-[[[3-[[imino(1-piperidinyl)methyl]amino]phenyl]carbonyl]amino]acetyl]amino]benzenepropanoic acid, trifluoroacetate salt]	229 nM	3170 nM
O=C(O)CC(NC(=O)CNC(=O)c1cccc(Nc2nc3ccccc3o2)c1)c1cccnc1 (stereo not drawn) [Example 286, β-[[2-[[[3-[[benzoxazol-2-yl)amino]phenyl]carbonyl]amino]acetyl]amino]pyridine-3-propanoic acid, trifluoroacetate salt]	413 nM	8090 nM
O=C(O)CC(NC(=O)CNC(=O)c1cccc(Nc2ncc(-c3ccccc3)[nH]2)c1)c1cccnc1 (stereo not drawn) [Example 287, β-[[2-[[[3-[[5-phenyl-1H-imidazol-2-yl)amino]phenyl]carbonylamino]acetyl]amino]pyridine-3-propanoic acid, trifluoroacetate salt]	49.7 nM	41.1 nM
N=C(N)Nc1cccc(C(=O)NCC(=O)NC(CC(=O)O)CC(=O)Nc2cc(Cl)cc(Cl)c2)c1 (stereo not shown) [Example 288, 3-[[2-[[[3-[(aminoiminomethyl)amino]phenyl]carbonyl]amino]acetyl]amino)-5-[(3,5-dichlorophenyl)amino]-5-oxopentanoic acid, trifluoroacetate salt]	8.62 nM	1060 nM
N=C(N)Nc1cc(C(=O)O)cc(C(=O)NCC(=O)NC(CC(=O)O)c2cccnc2)c1 (stereo not drawn) [Example 289, β-[[2-[[[3-[(aminoiminomethyl)amino]-5-carboxyphenyl]carbonyl]amino]acetyl]amino]pyridine-3-propanoic acid, bis(trifluoroacetate)salt]	0.9 nM	621 nM
